Test results: patent US6506876B1, “LTA4 hydrolase inhibitor pharmaceutical compositions and methods of use” (G.D. Searle & Co., priority 1994, dated 2003)
Read-outs that look alike come from different tables or passages of the source.

Experiments:
[1] = target: T1, recombinant human LTA4 hydrolase (rhLTA4H) (Homo sapiens, UniProt P09960); test: Recombinant human LTA4 hydrolase assay for LTA4 hydrolase inhibitor activity; conditions: Recombinant Human LTA4 Hydrolase Assay IC50 LTA4H
T1 sequence (P09960 1-611): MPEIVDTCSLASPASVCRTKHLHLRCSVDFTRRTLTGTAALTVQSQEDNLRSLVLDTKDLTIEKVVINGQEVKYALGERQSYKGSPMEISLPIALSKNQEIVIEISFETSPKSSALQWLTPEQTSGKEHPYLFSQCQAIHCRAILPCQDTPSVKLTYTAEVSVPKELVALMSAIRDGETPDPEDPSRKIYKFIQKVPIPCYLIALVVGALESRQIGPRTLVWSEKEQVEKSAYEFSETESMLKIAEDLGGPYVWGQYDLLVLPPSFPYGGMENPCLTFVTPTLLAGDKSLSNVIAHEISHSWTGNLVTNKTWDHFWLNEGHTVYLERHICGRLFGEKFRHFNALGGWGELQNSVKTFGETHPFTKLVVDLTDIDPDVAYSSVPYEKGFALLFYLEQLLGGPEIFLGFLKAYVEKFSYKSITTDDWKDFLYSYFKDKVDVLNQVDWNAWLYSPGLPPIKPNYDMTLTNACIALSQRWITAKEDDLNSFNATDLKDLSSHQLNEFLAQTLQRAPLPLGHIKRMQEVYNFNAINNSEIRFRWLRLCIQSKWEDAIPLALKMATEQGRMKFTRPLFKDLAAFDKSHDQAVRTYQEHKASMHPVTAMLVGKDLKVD
Procedure: One or more predetermined amounts of a compound of the invention were incubated in assay buffer (0.1 M potassium phosphate, 5 mg/ml fatty acid free BSA, 10% DMSO, pH 7.4) for 10 minutes at room temperature with 250 ng of recombinant hLTA4H to allow binding, if any, between the enzyme and inhibitor. The stock enzyme solution was 1 mg/ml LTA4 hydrolase, 50 mM Tris, pH 8.0, 150 mM NaCl, 2.5 mM beta-mercaptoethanol, 50% glycerol. […] Each reaction was carried out at room temperature for 10 minutes. The reaction was stopped by diluting 25 μl of the reaction mixture with 500 μl of the assay buffer without DMSO. LTB4 was quantified in the diluted sample by a commercially available enzyme-linked immunoassay [Caymen Chemical Co., Ann Arbor, Mich.] using the method recommended in the manufacturer's instructions and compared to the amount of LTB4 produced in a negative control (i.e., essentially identical conditions except without addition of an inhibitor compound). The IC50 was routinely calculated from the data produced.

[2] = tested on: LTB4 production in mouse blood (LTA4 hydrolase); test: Ex vivo LTB4 production by calcium ionophore stimulated mouse blood after oral dosing; type: in vivo
Procedure: Ex Vivo LTB4 and Thromboxane Production by Calcium Ionophore Stimulated Mouse Blood for LTA4 Hydrolase Inhibitor Activity
Leukotriene A4 hydrolase inhibitor compounds of the present invention were diluted to a predetermined concentration in phosphate buffered saline containing 2% DMSO and 1% Tween 80. The compounds were administered by oral gavage to adult male outbred mice weighing approximately 20-30 gm at a dose of 10 mg/kg body weight. (Compounds given at a dose of 50 mg/kg body weight are designtated in following Table by the symbol, *.) Sixty (60) minutes after administration of an LTA4 inhibitor compound of the invention, blood was collected (into heparin-containing tubes) from the retroorbital sinus. […] The mixture was incubated for 10 minutes at 37° C. in a humidified incubator. The reaction was terminated by centrifugation (833 g, 10 minutes at 4° C.). Supernatants were analyzed for LTB4 and thromboxane by commercially available enzyme-linked immunoassays (Caymen Chemical Co., Ann Arbor, Mich.] in accordance with the manufacturer's instructions. The percent inhibition was determined by comparison to animals treated identically except that the solution admininstered by oral gavage was devoid of inhibitor compound.

[3] = mouse, oral gavage, 1 hour after administration of 10 mg/kg; read-out: Murine Ex Vivo LTB4 Inhibition % I LTB4
[4] = Mus musculus, po, 1 h, read-out: Murine Ex Vivo LTB4 Inhibition % I LTB4
[5] = Mus musculus, po, 1 h; read-out: Murine Ex Vivo LTB4 Inhibition % I LTB4

Compound	IC50 ([1]; recombinant hLTA4H)	inhibition in vivo at 10 mg/kg [2, 3]	further results
CC(C)(C)OC(=O)C1CCN(CCCOc2ccc(Cc3ccccc3)cc2)CC1 [Example 263]	4500 nM	60%	–
O=C(CCNCCOc1ccc(Cc2ccccc2)cc1)OCc1ccccc1 [Example 266]	6500 nM	29%	–
COC(=O)CCNCCCOc1ccc(Cc2ccccc2)cc1 [Example 267]	170 nM	–	inhibition in vivo at 50 mg/kg ([2]; mouse, oral gavage, 1 hour after administration of 50 mg/kg (*); read-out: Murine Ex Vivo LTB4 Inhibition % I LTB4): 100%
CCOC(=O)C1CCCN(CCCOc2ccc(Cc3ccccc3)cc2)C1 (stereo not drawn) [Example 269]	2770 nM	50%	–
O=C(CCNCCCCOc1ccc(Cc2ccccc2)cc1)OCc1ccccc1 [Example 273]	610 nM	100%	–
c1ccc(Cc2ccc3c(c2)CC(CN2CCCC2)O3)cc1 (stereo not drawn) [Example 280]	11 nM	33%	–
CCOC(=O)C1CCN(CC2Cc3cc(Cc4ccccc4)ccc3O2)CC1 (stereo not drawn) [Example 282]	3700 nM	57%	–
NC(=O)C1CCN(CC2Cc3cc(Cc4ccccc4)cnc3O2)CC1 (stereo not drawn) [Example 288]	700 nM	0%	–
NC(=O)C1CCN(CC2Cc3cc(Oc4ccccc4)ccc3O2)CC1 (stereo not drawn) [Example 290]	450 nM	94%	–
CCOC(=O)C1CCN(CC2Cc3cc(Oc4ccccc4)ccc3O2)CC1 (stereo not drawn) [Example 291]	8000 nM	67%	–
NC(=O)C1CCN(CC2CCc3cc(Cc4ccccc4)ccc3O2)CC1 (stereo not drawn) [Example 293]	480 nM	93%	–
CC(=O)N1CCN(CC2Cc3cc(Cc4ccccc4)ccc3O2)CC1 (stereo not drawn) [Example 294]	110 nM	57%	–
CNC(=O)C1CCN(CC2Cc3cc(Cc4ccccc4)ccc3O2)CC1 (stereo not drawn) [Example 295]	440 nM	80%	–
CNC(=O)C1CCN(CC2Cc3cc(Oc4ccccc4)ccc3O2)CC1 (stereo not drawn) [Example 296]	710 nM	72%	–
CCOC(=O)CC1CCN(CCOc2ccc(Cc3ccccc3)cc2)CC1 [Example 301]	4500 nM	81%	–
COC(=O)C1(O)CCN(CCOc2ccc(Cc3ccccc3)cc2)CC1 [Example 305]	10 nM	42%	–
CCOC(=O)C1CCN(CCOc2ccc(Cc3cccc(F)c3)cc2)CC1 [Example 309]	2500 nM	96%	–
CCOC(=O)C1CCN(CCOc2ccc(Cc3cccs3)cc2)CC1 [Example 310]	930 nM	96%	–
CC(=O)N[C@H]1C[C@@H](C)N(CCOc2ccc(Cc3ccccc3)cc2)[C@@H](C)C1 [Example 315]	163 nM	53%	–
C[C@@H]1C[C@H](C(N)=O)C[C@H](C)N1CCOc1ccc(Cc2ccccc2)cc1 [Example 316]	50 nM	85%	–
COC(=O)CCN(C)CCCOc1ccc(Cc2ccsc2)cc1 [Example 330]	900 nM	–	inhibition in vivo at 10 mg/kg [2, 4]: 95%
NC(=O)N1CCN(CC2Cc3cc(Cc4ccccc4)ccc3O2)CC1 (stereo not drawn) [Example 337]	360 nM	82%	–
c1ccc(Cc2ccc(OCCn3cnc4ccccc43)cc2)cc1 [Example 339]	2000 nM	47%	–
[O-][n+]1cccc2c1ncn2CCOc1ccc(Cc2ccccc2)cc1 [Example 363]	17 nM	62%	–

Compound	IC50 ([1]; recombinant hLTA4H)	inhibition in vivo at 10 mg/kg [2, 3]	further results
[O-][n+]1ccc2c(c1)ncn2CCOc1ccc(Cc2ccccc2)cc1 [Example 365]	–	–	IC50 [1]: 82 nM; inhibition in vivo at 10 mg/kg [2, 4]: 72%
NC(=O)C1CCN(CCOc2ccc(Cc3ccccc3)s2)CC1 [Example 369]	42000 nM	100%	–
CCOC(=O)C1CCN(CCOc2ccc(Cc3ccccc3)s2)CC1 [Example 370]	59000 nM	–	inhibition in vivo at 10 mg/kg [2, 5]: 96%
COC(=O)CCN(C)CCCOc1ccc(Cc2ccccc2)s1 [Example 375]	900 nM	–	inhibition in vivo at 10 mg/kg [2, 5]: 67%
OCC1CCCN1CCOc1ccc(Cc2ccccc2)cc1 (stereo not drawn) [Example 385]	140 nM	32%	–
OC1CCN(CCOc2ccc(Cc3ccccc3)cc2)C1 (stereo not drawn) [Example 386]	32 nM	–	inhibition in vivo at 10 mg/kg [2, 4]: 51%
CC1CCC(C)N1CCOc1ccc(Cc2ccccc2)cc1 (stereo not drawn) [Example 399]	100 nM	30%	–
CC(CN1CCCCCC1)Oc1ccc(Cc2ccccc2)cc1 (stereo not drawn) [Example 404]	1750 nM	52%	–
CCC(CN1CCCC1)Oc1ccc(Cc2ccccc2)cc1 (stereo not drawn) [Example 405]	420 nM	49%	–
c1ccc(Cc2ccc(OC(Cc3ccccc3)CN3CCCC3)cc2)cc1 (stereo not drawn) [Example 406]	500 nM	46%	–
C#CC(CC(=O)OCC)NCCCOc1ccc(Cc2ccccc2)cc1 (stereo not drawn) [Example 407]	20000 nM	0%	–
COC(=O)CCN(C)CCCOc1ccc(Cc2ccccc2)cc1 [Example 413]	43 nM	86%	–
CC(C)(O)CCNCCCOc1ccc(Cc2ccccc2)cc1 [Example 416]	410 nM	31%	–
NNC(=O)C1CCN(CCOc2ccc(Cc3ccccc3)cc2)CC1 [Example 419]	47 nM	90%	–
CNC(=O)CCNCCCOc1ccc(Cc2ccccc2)cc1 [Example 422]	100 nM	37%	–
NC(=O)C1(O)CCN(CCOc2ccc(Cc3ccccc3)cc2)CC1 [Example 427]	350 nM	68%	–
O=C(Nc1ccccc1)OC[C@@H]1CCCN1CCOc1ccc(Cc2ccccc2)cc1 [Example 428]	500 nM	2%	–
O=C(O)C1CCN(CCOc2ccc(Cc3ccccc3)cc2)CC1 [Example 429]	250 nM	–	inhibition in vivo at 10 mg/kg [2, 5]: 80%
CC(CN(C)CCCOc1ccc(Cc2ccccc2)cc1)C(=O)O (stereo not drawn) [Example 432]	140 nM	85%	–
N/C(=N\O)C1CCN(CC2Cc3cc(Cc4ccccc4)ccc3O2)CC1 (stereo not drawn) [Example 446]	35 nM	70%	–
CC1CC(c2nnn[nH]2)CCN1CCOc1ccc(Cc2ccccc2)cc1 (stereo not drawn) [Example 451]	6 nM	90%	–
NC1CCN(CCOc2ccc(Cc3ccccc3)cc2)CC1 [Example 455]	11 nM	67%	–
c1ccc(Cc2ccc(OCCN3CC4CCC3C4)cc2)cc1 (stereo not drawn) [Example 499]	240 nM	60%	–
c1ccc(Cc2ccc(OCCN3CC4CCC3CC4)cc2)cc1 [Example 500]	140 nM	53%	–
